pIC50: −log10 of the molar value.
Key:
Conditions in all cases: average where tested multiple times
[1] = target: T1, BCAT2 (Homo sapiens, UniProt O15382); experiment: BCAT2 in vitro cell inhibition using engineered A549 cells (KMV cell assay, 13C6-KMV by LC-MS/MS); format: cell-based; parameters: The result was an engineered A549 cell line that expressed endogenous BCAT2; endogenous in cells; host or cells: A549 cells with MUT and BCAT1 knocked out by CRISPR/CAS9
T1 sequence (O15382 28-392): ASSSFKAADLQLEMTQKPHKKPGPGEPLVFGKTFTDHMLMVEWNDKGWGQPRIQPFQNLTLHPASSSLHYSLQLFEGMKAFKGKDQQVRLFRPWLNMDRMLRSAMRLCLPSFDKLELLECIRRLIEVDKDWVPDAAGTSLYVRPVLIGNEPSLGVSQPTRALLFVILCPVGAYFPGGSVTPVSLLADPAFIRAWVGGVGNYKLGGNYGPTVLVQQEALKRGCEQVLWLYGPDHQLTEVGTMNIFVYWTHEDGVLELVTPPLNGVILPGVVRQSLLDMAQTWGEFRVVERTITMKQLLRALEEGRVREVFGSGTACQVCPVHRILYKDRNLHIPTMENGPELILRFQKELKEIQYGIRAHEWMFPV

[2] = target: T2, hBCAT1 (Homo sapiens, UniProt P54687); experiment: BCAT1 in vitro enzyme inhibition assay (resazurin/diaphorase-coupled fluorescence); format: biochemical
T2 sequence (P54687 1-386): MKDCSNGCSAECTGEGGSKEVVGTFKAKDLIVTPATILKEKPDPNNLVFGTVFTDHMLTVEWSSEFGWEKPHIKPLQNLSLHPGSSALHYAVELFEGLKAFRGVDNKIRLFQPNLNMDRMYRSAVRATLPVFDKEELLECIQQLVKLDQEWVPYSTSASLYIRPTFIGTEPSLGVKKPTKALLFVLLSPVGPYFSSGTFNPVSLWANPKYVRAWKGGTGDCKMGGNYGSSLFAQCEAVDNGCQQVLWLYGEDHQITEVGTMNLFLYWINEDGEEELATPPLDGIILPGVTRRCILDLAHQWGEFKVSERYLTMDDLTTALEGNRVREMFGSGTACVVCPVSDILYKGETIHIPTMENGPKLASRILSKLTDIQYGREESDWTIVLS
Protocol: BCAT1 In Vitro Enzyme Inhibition Assay
Meanwhile the Substrate Mix was prepared.
Test Compound Preparation:
Test compounds were prepared at 50× final concentration in DMSO, 1 to 3 dilutions were made for 10 points. The compounds were added to the assay as a 1 to 50 dilution (1 μL in 50 μL) to yield a top assay final concentration of 100 μM, decreasing 3-fold for 10 points. […] All tests were performed in technical duplicate.
Where a compound was tested multiple times, the average value of the tests is reported.

[3] = target: T1, BCAT2; experiment: BCAT2 in vitro enzyme inhibition assay (resazurin/diaphorase-coupled fluorescence); format: biochemical
In short: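 Coupled fluorescence readout: glutamate formed from L-leucine/α-ketoglutarate transamination drives GDH/NAD/diaphorase reduction of resazurin (Ex 540/Em 590). Human BCAT2 was first exposed 1 h at room temperature to compound, top final 100 μM in 3-fold, 10-point series; substrate reaction ran 1 h before SDS quench, in technical duplicate with DMSO max and enzyme-free min controls.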

Compound | pIC50 [1] | pIC50 [2] | pIC50 [3]
O=C(NC1CCCC(n2c(-c3ccccn3)nc3cnc(-c4nnco4)cc32)C1)c1ccc(Br)s1 (centres unmarked) [Example 1, N-(3-(6-(1,3,4-oxadiazol-2-yl)-2-(pyridin-2-yl)-1H-imidazo[4,5-c]pyridin-1-yl)cyclohexyl)-5-bromothiophene-2-carboxamide] | 6.30 to 7.00 | 5.30 to 6.00 | ≥ 7.00
CO[C@@H]1C[C@@H](NC(=O)c2ccc(Cl)s2)C[C@@H](n2c(-c3ccccc3F)nc3cnc(-c4nc[nH]n4)cc32)C1 (stereo in doubt) [Example 412, 5-chloro-N-((1S,3R,5R)-3-(2-(2-fluorophenyl)-6-(1H-1,2,4-triazol-3-yl)-1H-imidazo[4,5-c]pyridin-1-yl)-5-methoxycyclohexyl)thiophene-2-carboxamide] | ≥ 7.00 | > 6.30 | ≥ 7.00
Cc1coc(-c2cc3c(cn2)nc(-c2ccccc2F)n3C2CC(NC(=O)c3ncc(Cl)s3)CN(C)C2)n1 (centres unmarked) [Example 130, 5-chloro-N-(5-(2-(2-fluorophenyl)-6-(4-methyloxazol-2-yl)-1H-imidazo[4,5-c]pyridin-1-yl)-1-methylpiperidin-3-yl)thiazole-2-carboxamide] | 6.30 to 7.00 | 5.30 to 6.00 | ≥ 7.00
CNC(=O)c1cc2nc(-c3ccccc3F)n(C3CC(NC(=O)c4ccc(Br)s4)CN(C)C3)c2cc1OC (centres unmarked) [Example 291, 1-(5-(5-bromothiophene-2-carboxamido)-1-methylpiperidin-3-yl)-2-(2-fluorophenyl)-6-methoxy-N-methyl-1H-benzo[d]imidazole-5-carboxamide] | 6.30 to 7.00 | 5.30 to 6.00 | ≥ 7.00
O=C(N[C@H]1CCC[C@@H](n2c(-c3ccccn3)nc3cc(-c4cnco4)ncc32)C1)c1ccc(Br)s1 [Example 154, 5-bromo-N-((1S,3R)-3-(6-(oxazol-5-yl)-2-(pyridin-2-yl)-3H-imidazo[4,5-c]pyridin-3-yl)cyclohexyl)thiophene-2-carboxamide] |  | < 5.30 | 6.00 to 6.30
Cn1cc(-c2cc3nc(-c4ccccn4)n(C4CCCC(NC(=O)c5ccc(Br)s5)C4)c3cn2)cn1 (centres unmarked) [Example 156, 5-bromo-N-(3-(6-(1-methyl-1H-pyrazol-4-yl)-2-(pyridin-2-yl)-3H-imidazo[4,5-c]pyridin-3-yl)cyclohexyl)thiophene-2-carboxamide] |  | < 5.30 | < 6.00
C#Cc1ccc(C(=O)NC2CC(n3c(-c4ccccc4F)nc4cc(C(=O)NC)c(OC)cc43)CN(C)C2)s1 (centres unmarked) [Example 292, 1-(5-(5-ethynylthiophene-2-carboxamido)-1-methylpiperidin-3-yl)-2-(2-fluorophenyl)-6-methoxy-N-methyl-1H-benzo[d]imidazole-5-carboxamide] |  | 5.30 to 6.00 | ≥ 7.00
Cc1cn(-c2cc3c(cn2)nc(-c2ccccn2)n3[C@@H]2CCC[C@H](NC(=O)c3ccc(Br)s3)C2)nn1 [Example 40, 5-bromo-N-((1S,3R)-3-(6-(4-methyl-1H-1,2,3-triazol-1-yl)-2-(pyridin-2-yl)-1H-imidazo[4,5-c]pyridin-1-yl)cyclohexyl)thiophene-2-carboxamide] |  | 5.30 to 6.00 | ≥ 7.00
CC(=O)N1CC(NC(=O)c2ccc(Br)s2)CC(n2c(-c3ccccn3)nc3ccc(C#N)cc32)C1 (centres unmarked) [Example 289, N-(1-acetyl-5-(6-cyano-2-(pyridin-2-yl)-1H-benzo[d]imidazol-1-yl)piperidin-3-yl)-5-bromothiophene-2-carboxamide] |  | < 5.30 | 6.30 to 7.00
C#Cc1ccc(C(=O)N[C@H]2CCC[C@@H](n3c(-c4ccccn4)nc4cc(-c5cnco5)ncc43)C2)s1 [Example 153, 5-ethynyl-N-((1S,3R)-3-(6-(oxazol-5-yl)-2-(pyridin-2-yl)-3H-imidazo[4,5-c]pyridin-3-yl)cyclohexyl)thiophene-2-carboxamide] |  | < 5.30 | 6.30 to 7.00
O=C(NC1CCCC(n2c(-c3ccccn3)nc3cc(-c4nnco4)ncc32)C1)c1ccc(Br)s1 (centres unmarked) [Example 157, N-(3-(6-(1,3,4-oxadiazol-2-yl)-2-(pyridin-2-yl)-3H-imidazo[4,5-c]pyridin-3-yl)cyclohexyl)-5-bromothiophene-2-carboxamide] |  | 5.30 to 6.00 | ≥ 7.00
CC(C)(O)c1cnn(-c2cc3c(cn2)nc(-c2ccccn2)n3[C@@H]2CCC[C@H](NC(=O)c3ncc(C(F)F)s3)C2)n1 [Example 70, 5-(difluoromethyl)-N-((1S,3R)-3-(6-(4-(2-hydroxypropan-2-yl)-2H-1,2,3-triazol-2-yl)-2-(pyridin-2-yl)-1H-imidazo[4,5-c]pyridin-1-yl)cyclohexyl)thiazole-2-carboxamide] |  | < 5.30 | ≥ 7.00
C#Cc1cnc(C(=O)N[C@H]2CCC[C@@H](n3c(-c4ccccn4)nc4cnc(-n5cncn5)cc43)C2)s1 [Example 27, 5-ethynyl-N-((1S,3R)-3-(2-(pyridin-2-yl)-6-(1H-1,2,4-triazol-1-yl)-1H-imidazo[4,5-c]pyridin-1-yl)cyclohexyl)thiazole-2-carboxamide] |  | 5.30 to 6.00 | ≥ 7.00

Other lines, results leading:

pIC50 [1] | pIC50 [2] | pIC50 [3] | Compound
≥ 7.00 | > 6.30 | ≥ 7.00 | CC(C)Cc1nc2cnc(-c3nc[nH]n3)cc2n1[C@@H]1CCC[C@H](NC(=O)c2ccc(Cl)s2)[C@H]1O [Example 401, 5-chloro-N-((1S,2R,3R)-2-hydroxy-3-(2-isobutyl-6-(1H-1,2,4-triazol-3-yl)-1H-imidazo[4,5-c]pyridin-1-yl)cyclohexyl)thiophene-2-carboxamide]
≥ 7.00 | > 6.30 | ≥ 7.00 | CC(C)(C)Cc1nc2cnc(-n3nccn3)cc2n1[C@@H]1CCC[C@H](NC(=O)c2ccc(Cl)s2)[C@H]1O [Example 387, 5-chloro-N-((1S,2R,3R)-2-hydroxy-3-(2-neopentyl-6-(2H-1,2,3-triazol-2-yl)-1H-imidazo[4,5-c]pyridin-1-yl)cyclohexyl)thiophene-2-carboxamide]
≥ 7.00 | > 6.30 | ≥ 7.00 | CC(C)Cc1nc2cnc(-n3nccn3)cc2n1[C@@H]1COC[C@H](NC(=O)c2ccc(Cl)s2)C1 (single isomer, unassigned) [Example 141]
 | < 5.30 | 6.30 to 7.00 | O=C(NC1CCC(n2c(-c3ccccn3)nc3cnc(-n4nccn4)cc32)C1)c1ccc(Br)s1 (centres unmarked) [Example 93, 5-bromo-N-(3-(2-(pyridin-2-yl)-6-(2H-1,2,3-triazol-2-yl)-1H-imidazo[4,5-c]pyridin-1-yl)cyclopentyl)thiophene-2-carboxamide]
 | < 5.30 | < 6.00 | Cc1nc2cnc(-n3nccn3)cc2n1[C@@H]1CCC[C@H](NC(=O)c2ccc(Br)s2)C1 [Example 51, 5-bromo-N-((1S,3R)-3-(2-methyl-6-(2H-1,2,3-triazol-2-yl)-1H-imidazo[4,5-c]pyridin-1-yl)cyclohexyl)thiophene-2-carboxamide]
 | < 5.30 | ≥ 7.00 | O=C(N[C@H]1CCC[C@@H](n2c(-c3ccccn3)nc3cc(-n4nccn4)ncc32)C1)c1ccc(Br)s1 [Example 151, 5-bromo-N-((1S,3R)-3-(2-(pyridin-2-yl)-6-(2H-1,2,3-triazol-2-yl)-3H-imidazo[4,5-c]pyridin-3-yl)cyclohexyl)thiophene-2-carboxamide]
 | > 6.30 | ≥ 7.00 | CC(C)Cc1nc2cnc(-c3ncccn3)cc2n1[C@H]1C[C@H](O)C[C@@H](NC(=O)c2ncc(Cl)s2)C1 (stereo in doubt) [Example 398, 5-chloro-N-((1S,3R,5R)-3-hydroxy-5-(2-isobutyl-6-(pyrimidin-2-yl)-1H-imidazo[4,5-c]pyridin-1-yl)cyclohexyl)thiazole-2-carboxamide]
